Measurements published in PubChem BioAssay AID330 (DTP/NCI, 2004).
Inconclusive results and toxic doses are left out. How the source made its calls: active means survival T/C of 150% or more; inactive means T/C below 125% in these data.

System: P388 leukemia ip, CD2F1 mice, survival T/C
Test: NCI In Vivo Anticancer Drug Screen. Data for tumor model P388 Leukemia (intraperitoneal) in CD2F1 (CDF1) mice
Details: endpoint: median survival time, higher = longer survival
In short: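 Mice carrying the transplanted tumor received test compound or vehicle. Survival was recorded in each group, and the value is the treated-group measurement divided by that of the vehicle-treated control group.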

[1] = dose: 50.0 mg/kg/injection, schedule: Q01DX009 (ip), vehicle: saline with Tween-80
[2] = dose: 100.0 mg/kg/injection, schedule: Q01DX009 (ip), vehicle: saline with Tween-80
[3] = dose: 200.0 mg/kg/injection, schedule: Q01DX009 (ip), vehicle: saline with Tween-80
[4] = dose: 50.0 mg/kg/injection, schedule: Q01DX009 (ip), vehicle: saline
[5] = dose: 100.0 mg/kg/injection, schedule: Q01DX009 (ip), vehicle: saline
[6] = dose: 200.0 mg/kg/injection, schedule: Q01DX009 (ip), vehicle: saline
[7] = dose: 50.0 mg/kg/injection, schedule: Q01DX005 (ip), vehicle: saline
[8] = dose: 100.0 mg/kg/injection, schedule: Q01DX005 (ip), vehicle: saline
[9] = dose: 200.0 mg/kg/injection, schedule: Q01DX005 (ip), vehicle: saline
[10] = dose: 25.0 mg/kg/injection, schedule: Q01DX009 (ip), vehicle: saline with Tween-80
[11] = dose: 60.0 mg/kg/injection, schedule: Q01DX005 (ip), vehicle: saline with Tween-80
[12] = dose: 120.0 mg/kg/injection, schedule: Q01DX005 (ip), vehicle: saline with Tween-80
[13] = dose: 240.0 mg/kg/injection, schedule: Q01DX005 (ip), vehicle: saline with Tween-80
[14] = dose: 50.0 mg/kg/injection, schedule: Q01DX005 (ip), vehicle: saline with Tween-80
[15] = dose: 100.0 mg/kg/injection, schedule: Q01DX005 (ip), vehicle: saline with Tween-80
[16] = dose: 100.0 mg/kg/injection, schedule: Q01DX001 (ip), vehicle: Klucel (hydroxypropylcellulose) (HPC)
[17] = dose: 200.0 mg/kg/injection, schedule: Q01DX001 (ip), vehicle: Klucel (hydroxypropylcellulose) (HPC)
[18] = dose: 200.0 mg/kg/injection, schedule: Q01DX005 (ip), vehicle: saline with Tween-80

Measured: T/C

CCCc1c(C)nc2scc(-c3ccccc3)n2c1=O
inactive: [1] 105 % of control | [2] 99 % of control | [3] 99 % of control

O=C(O)C1CCCN1 (centres undefined)
inactive: [4] 98 % of control | [5] 100 % of control | [6] 100 % of control

CCOC(=O)C1=C(C)OC(C)(OC(C)=O)C1=O (centres undefined)
inactive: [7] 90 % of control | [8] 103 % of control | [9] 105 % of control

Nc1nc(N)nc(N2CCCC2)n1
inactive: [10] 101 % of control | [1] 97 % of control | [2] 92 % of control

NCCCCNC(c1ccccc1)C(O)c1ccccc1 (centres undefined)
inactive: dose: 50.0 mg/kg/injection, schedule: Q01DX009 (ip), vehicle: Klucel (hydroxypropylcellulose) (HPC) 100 % of control | dose: 100.0 mg/kg/injection, schedule: Q01DX009 (ip), vehicle: Klucel (hydroxypropylcellulose) (HPC) 99 % of control

CC1C(=O)OC2CCN3CC4OC4(COC(=O)C(C)(O)C1(C)O)C23 (centres undefined)
inactive: dose: 132.0 mg/kg/injection, schedule: Q04DX003 (ip), vehicle: saline with Tween-80 90 % of control | dose: 200.0 mg/kg/injection, schedule: Q04DX003 (ip), vehicle: saline with Tween-80 110 % of control | dose: 300.0 mg/kg/injection, schedule: Q04DX003 (ip), vehicle: saline with Tween-80 100 % of control

O=C(CCCCC(=O)Nc1cc(C2=NCCN2)cc(C2N=CCN2)c1)Nc1cc(C2=NCCN2)cc(C2=NCCN2)c1 (centres undefined)
inactive: dose: 6.25 mg/kg/injection, schedule: Q01DX005 (ip), vehicle: saline 104 % of control

CC(=O)O[C@H]1[C@@H]2c3c(ccc4c(=O)cc(-c5ccccc5)oc34)O[C@@H]2OC1(C)C
inactive: dose: 0.98 mg/kg/injection, schedule: Q01DX005 (ip), vehicle: Klucel (hydroxypropylcellulose) (HPC) 100 % of control | dose: 1.95 mg/kg/injection, schedule: Q01DX005 (ip), vehicle: Klucel (hydroxypropylcellulose) (HPC) 98 % of control | dose: 3.9 mg/kg/injection, schedule: Q01DX005 (ip), vehicle: Klucel (hydroxypropylcellulose) (HPC) 86 % of control

O=C1C(C2CCCCC2)=C2OCC3COC2(O3)c2ccccc21 (centres undefined)
inactive: [11] 102 % of control | [12] 105 % of control | [13] 102 % of control

C/C=C1\C[C@H]2C(=O)Nc3cc(O)c(OC)cc3C(=O)N2C1
inactive: dose: 25.0 mg/kg/injection, schedule: Q01DX005 (ip), vehicle: saline with Tween-80 96 % of control | [14] 105 % of control | [15] 106 % of control

CCn1c(Cl)c(/C=N/Nc2ccccc2[N+](=O)[O-])c2cc(/C=N/Nc3ccccc3[N+](=O)[O-])ccc21
inactive: [16] 87 % of control | [17] 93 % of control | dose: 400.0 mg/kg/injection, schedule: Q01DX001 (ip), vehicle: Klucel (hydroxypropylcellulose) (HPC) 91 % of control

CCOC(=O)C1(c2ccccc2)SC(C(=O)OCC)(c2ccccc2)S1 (centres undefined)
inactive: dose: 100.0 mg/kg/injection, schedule: Q04DX003 (ip), vehicle: saline 112 % of control | dose: 200.0 mg/kg/injection, schedule: Q04DX003 (ip), vehicle: saline 107 % of control | dose: 400.0 mg/kg/injection, schedule: Q04DX003 (ip), vehicle: saline 103 % of control

COC(=O)c1c(C(=O)Nc2ccccc2)c(-c2ccccc2)n(NC(N)=O)c1C
inactive: [14] 112 % of control | [15] 107 % of control | [18] 104 % of control

Cc1ccc(S(=O)(=O)N/N=C/C(C)c2cccnc2)cc1 (centres undefined)
inactive: [1] 105 % of control | [2] 99 % of control | [3] 107 % of control

C[Si](C)(C)C1c2ccccc2-c2[nH]c3ccccc3c21 (centres undefined)
inactive: dose: 6.25 mg/kg/injection, schedule: Q01DX009 (ip), vehicle: Klucel (hydroxypropylcellulose) (HPC) 101 % of control | dose: 12.5 mg/kg/injection, schedule: Q01DX009 (ip), vehicle: Klucel (hydroxypropylcellulose) (HPC) 87 % of control | dose: 25.0 mg/kg/injection, schedule: Q01DX009 (ip), vehicle: Klucel (hydroxypropylcellulose) (HPC) 102 % of control

CCOC(=O)C1(CC(C)C)CCOC1=O (centres undefined)
inactive: dose: 50.0 mg/kg/injection, schedule: Q01DX005 (ip), vehicle: Klucel (hydroxypropylcellulose) (HPC) 99 % of control | dose: 100.0 mg/kg/injection, schedule: Q01DX005 (ip), vehicle: Klucel (hydroxypropylcellulose) (HPC) 96 % of control | dose: 200.0 mg/kg/injection, schedule: Q01DX005 (ip), vehicle: Klucel (hydroxypropylcellulose) (HPC) 97 % of control

c1ccc(CN2CCCC3CCCC32)cc1 (centres undefined)
inactive: dose: 100.0 mg/kg/injection, schedule: Q01DX001 (ip), vehicle: saline with Tween-80 97 % of control

c1ccc2sc(SSN3CC4CCC(CC4)C3)nc2c1
inactive: dose: 12.5 mg/kg/injection, schedule: Q01DX009 (ip), vehicle: saline with Tween-80 102 % of control | [10] 107 % of control | [1] 123 % of control | [2] 115 % of control

CCCCCc1ccccc1O
inactive: [1] 100 % of control | [2] 95 % of control

Cc1ccc(C(=O)/C=C/c2ccccc2)cc1
inactive: dose: 12.5 mg/kg/injection, schedule: Q01DX009 (ip), vehicle: water 94 % of control | [10] 92 % of control | dose: 25.0 mg/kg/injection, schedule: Q01DX009 (ip), vehicle: water 95 % of control | [1] 108 % of control | dose: 50.0 mg/kg/injection, schedule: Q01DX009 (ip), vehicle: water 99 % of control | [2] 102 % of control | dose: 100.0 mg/kg/injection, schedule: Q01DX009 (ip), vehicle: water 104 % of control | [3] 109 % of control | dose: 200.0 mg/kg/injection, schedule: Q01DX009 (ip), vehicle: water 96 % of control

Cc1ccc(S(=O)(=O)Oc2ccc3c(/C=C/[N+](=O)[O-])cn(C)c3c2)cc1
inactive: dose: 50.0 mg/kg/injection, schedule: Q01DX001 (ip), vehicle: Klucel (hydroxypropylcellulose) (HPC) 90 % of control | [16] 86 % of control | [17] 101 % of control

CC(C)CC(NC(=O)C(Cc1ccccc1)NC(=O)CNC(=O)C(C)NC(=O)C(N)Cc1ccc(O)cc1)C(=O)O (centres undefined)
inactive: [14] 93 % of control | [15] 109 % of control | [18] 91 % of control

CCOc1ccc(-n2c(-c3ccc(F)cc3)c(N=Nc3ccccc3)sc2=N)cc1
inactive: dose: 60.0 mg/kg/injection, schedule: Q01DX005 (ip), vehicle: Klucel (hydroxypropylcellulose) (HPC) 96 % of control | dose: 120.0 mg/kg/injection, schedule: Q01DX005 (ip), vehicle: Klucel (hydroxypropylcellulose) (HPC) 102 % of control | dose: 240.0 mg/kg/injection, schedule: Q01DX005 (ip), vehicle: Klucel (hydroxypropylcellulose) (HPC) 108 % of control

COc1ccc(S(=O)(=O)c2cnc(N/N=C/c3ccc([N+](=O)[O-])o3)nc2N)cc1
inactive: dose: 100.0 mg/kg/injection, schedule: Q01DX001 (ip), vehicle: saline 93 % of control | dose: 200.0 mg/kg/injection, schedule: Q01DX001 (ip), vehicle: saline 90 % of control | dose: 400.0 mg/kg/injection, schedule: Q01DX001 (ip), vehicle: saline 90 % of control

Cc1nn(C)c(Cl)c1C(=O)Nc1ccccc1
inactive: [14] 96 % of control | [11] 98 % of control | [15] 96 % of control | [18] 90 % of control | [13] 92 % of control

C=C(C(=O)OC)C(O)CC (centres undefined)
inactive: [7] 91 % of control | [8] 107 % of control | [9] 100 % of control

CCN(Cc1cccc(S(=O)(=O)O)c1)c1ccc(C(=C2C=CC(=[N+](CC)Cc3cccc(S(=O)(=O)O)c3)C=C2)c2ccccc2Cl)cc1
inactive: [14] 103 % of control | [15] 99 % of control | [18] 110 % of control

CC(=O)NCCc1nc(-c2nc(C(=O)O)cs2)cs1
inactive: dose: 12.5 mg/kg/injection, schedule: Q01DX009 (ip), vehicle: distilled water + Tween-80 102 % of control | dose: 25.0 mg/kg/injection, schedule: Q01DX009 (ip), vehicle: distilled water + Tween-80 100 % of control | dose: 50.0 mg/kg/injection, schedule: Q01DX009 (ip), vehicle: distilled water + Tween-80 102 % of control | dose: 100.0 mg/kg/injection, schedule: Q01DX009 (ip), vehicle: distilled water + Tween-80 100 % of control

O=C(/N=C1\N=Nc2nc(C(C(=O)c3cccc([N+](=O)[O-])c3Cl)c3nc4n(c3O)/C(=N/C(=O)Nc3ccc(Cl)cc3)N=N4)c(O)n21)Nc1ccc(Cl)cc1 (centres undefined)
inactive: [11] 99 % of control | [12] 100 % of control | [13] 97 % of control

CC(C)COC(CN(C)C)C(Cl)(Cl)Cl (centres undefined)
inactive: [4] 107 % of control | [5] 100 % of control | [6] 116 % of control
